Measurements published in patent US8703106B2, “Chlorine dioxide treatment for biological tissue” (priority 2009, dated 2014).
Values joined by “and” are separate entries in the source; they are usually repeats but may differ in a detail not shown here. Equal entries are not always repeated.

How the values were obtained:
mixed PA/MRSA biofilm = assay: Biofilm kill in protein-rich (FBS) environment (Example 3); type: cell-based, Pseudomonas aeruginosa and Staphylococcus aureus; details: for Log Reduction in Organism Count: MRSA + PA
Procedure: (§1) Chlorine dioxide efficacy against biofilm in protein-rich environment A series of experiments were conducted to determine the effect of FBS on the kill of PA. MRSA and mixture PA/MRSA biofilms. Biofilms were grown as described in Example 1, Disks were immersed in 25 ml of FBS solution at double the target FBS concentration, and to that was added 25 ml of chlorine dioxide solution at double the target chlorine dioxide concentration. After the desired contact time, disks were removed from the treatment solutions, neutralized, and plated as described above.
(§2) Dosage is given both as the nominal dose based upon the initial chlorine dioxide concentration, and the actual dosage as estimated from the initial chlorine dioxide concentration and the decay relationships described above.
(§3) Columns 3-6 are measured data; columns 7-11 are calculated data. For K2 having a positive sign (such as Samples 20-21), it was assumed that there was insufficient FBS present to cause a material loss of chlorine dioxide. Therefore, for such samples, it was assumed that chlorine dioxide was unchanged over the time of the experiment FIG. 4 is a graph of the results.

MRSA biofilm = assay: as above; type: cell-based, Staphylococcus aureus; details: for Log Reduction in Organism Count: MRSA
Procedure: as §1, §2, §3

[1] = Chlorine dioxide loss in fetal blood serum (FBS) solution; type: physicochemical
Procedure: A series of experiments were conducted to estimate and quantify the effect of blood serum on chlorine dioxide concentration. Solutions of chlorine dioxide and fetal blood serum (FBS) were prepared at different concentrations of chlorine dioxide and FBS, and the chlorine dioxide concentration was tracked using a Spectral Physics UV/Visible spectrophotometer with a direct insertion probe (1 mm path length).
The initial chlorine dioxide concentration was measured using a Hach Model 2400 UV/Vis spectrophotometer. A UV/Vis scan was then measured over the wavelength range of about […] using the direct insertion probe, and this was used to calculate the initial absorbance of the solution. FBS was then added, and UV/Vis scans were run periodically thereafter. The area of the chlorine dioxide absorbance peak was calculated for each scan, and the relative chlorine dioxide concentration at each time was calculated by dividing the area at each time point by the peak area of the initial scan (prior to FBS addition). Relative chlorine dioxide concentration was plotted versus time for each set of chlorine dioxide and FBS concentrations. […] The exponent K2 in the equation is an estimate of the decay rate of chlorine dioxide in the FBS solution. The weight ratio of FBS to chlorine dioxide was calculated by dividing, the mass of FBS added to the solution by the mass of chlorine dioxide in the solution.
as §2, §3

[2] = Tooth whitening with multiple contiguous applications, Vita Classic Shade Guide (Example 7); parameters: species or system human; details: for ΔSVU, Average: average of five teeth; for ΔSVU: nominal 200 ppm (actual 155 ppm) NaCMC gel, pH 5.0, individual teeth A-E, baseline C4
Source text: This study was designed to assess the efficacy on tooth whitening of two different regimens of multiple, contiguous applications of a 200 ppm chlorine dioxide gel. Five human extracted teeth (molars) were used in this study. Each tooth was sectioned twice: first at the tooth's cemento-enamel junction to remove the root portion of the tooth; then sectioned mesio-distally to separate the tooth into two, separate buccal and lingual halves. […] The sectioned teeth were then stained in concentrated black tea (cooled to room temperature after brewing) until each tooth accumulated enough stain to be visually graded as “C4” (hut no lighter than “A4”) per the Vita Classic Shade Vision Guide.
After staining, the cut sides of each tooth were sealed with an acrylic polymer (i.e. acrylic-based nail polish). The tooth was then “split” or functionally “divided” into a left and right sides (the tooth was not physically split). To create “dividing line,” a narrow channel was first created down the center of the tooth (running from the occlusal to the gingival or cervical portion of the tooth) using a narrow tungsten carbide or diamond tip dental bur, thereby creating an approximately 0.5 to 1.5-mm deep by 1 to 1.5-mm wide channel on either the buccal or lingual enamel surface of the tooth segment. The channel was etched carefully with a 34-40% phosphoric acid dental etching gel preparation (being careful to confine the gel only to the enamel within the prepared channel). The etching gel was then removed by water rinsing, the Stir face was dried, and a thin, narrow band of enamel-dentin adhesive was then applied carefully only to the enamel within the narrow channel. The material was allowed to dry in ambient air for 1 minute then carefully dried with a gentle stream of compressed air for an additional 10 seconds. The enamel-dentin adhesive was subsequently cured by exposure to a visible light dental curing unit using actinic blue light at an approximate peak wavelength of 470 nm for multiple, 20 second curing increments. In order to fill in the channel and gradually build a “wall” or harrier to separate the left and right half of the lingual surface of the tooth, a thin, narrow layer or band of composite resin dental restorative material was added in several steps and cured with the dental visible blue-light curing unit.
The wall that was built up on each tooth prevents whitening agent applied on the left side of the tooth to migrate into the whitening agent that was applied on the right side of the tooth, and visa versa. In this way, it is possible to compare two different treatment regimens on the same tooth, thereby minimizing the biological diversity among different teeth that may affect whitening efficacy.
Two treatment regimens were tested, both using a nominal 200 ppm chlorine dioxide gel comprising sodium carboxymethylcellulose (NaCMC). The actual concentration of chlorine dioxide was measured and found to be 155 ppm; pH of the composition was 5.0. The general treatment protocol is as follows. […] The 60 ml syringe was used to store the gel during the assay, and for dispensing gel into a 10 ml plastic syringe. The gel in the 10 ml syringe was then dispensed directly onto the tooth section enamel surfaces as follows. At time zero, about 1 to 1.5 ml gel was dispensed onto the enamel surface of each tooth segment attached to the glass microscope slide. The thickness of the resulting gel layer was about 1.5 to 3.0 mm in depth. After dispensing the gel onto the tooth segments, the glass slide was placed in a plastic zippered bag, containing small strips of wet paper towel within the bag to maintain 100% humidity in the bag. The paper towel strips were positioned to eliminate any contact of the plastic bag with the tooth and gel surfaces.
Upon conclusion of a contact epidose, the glass slide was removed from the plastic bag, and the gel was carefully removed with an extra soft bristle toothbrush and a gentle stream of running tap water. […]

[3] = 30 minutes total exposure, Left: 2 × 15 minutes
[4] = 30 minutes total exposure, Right: 4 × 7.5 minutes
[5] = 60 minutes total exposure, Left: 4 × 15 minutes
[6] = 60 minutes total exposure, Right: 8 × 7.5 minutes

[O][Cl+][O-] [ClO2, chlorine dioxide]
Log Reduction in Organism Count (mixed PA/MRSA biofilm; Sample 17, FBS 131 mg/mg ClO2, 15.0 min, initial 191 ppm, nominal 2865, corrected 2236 ppm-min): 8.2 log | Log Reduction in Organism Count (mixed PA/MRSA biofilm; Sample 18, FBS 131 mg/mg ClO2, 40.0 min, initial 191 ppm, nominal 7640, corrected 5559 ppm-min): 8.2 log | Log Reduction in Organism Count (mixed PA/MRSA biofilm; Sample 19, FBS 104 mg/mg ClO2, 15.0 min, initial 240 ppm, nominal and corrected 3600 ppm-min): 8.2 log | Log Reduction in Organism Count (mixed PA/MRSA biofilm; Sample 20, FBS 104 mg/mg ClO2, 30.0 min, initial 240 ppm, nominal and corrected 7200 ppm-min): 8.2 log | Log Reduction in Organism Count (mixed PA/MRSA biofilm; Sample 21, FBS 104 mg/mg ClO2, 60.0 min, initial 240 ppm, nominal and corrected 14400 ppm-min): 8.2 log | corrected dose rate resulting in complete kill (mixed PA/MRSA biofilm; mixed PA/MRSA biofilm, with FBS): ≥ 2000 ppm-rain | corrected dose rate resulting in complete kill (MRSA biofilm; MRSA biofilm, with FBS): ≥ 2000 ppm-rain | Log Reduction in Organism Count (MRSA biofilm; Sample 22, FBS 131 mg/mg ClO2, 15.0 min, initial 191 ppm, nominal 2865, corrected 2236 ppm-min): 4.7 log | Log Reduction in Organism Count (MRSA biofilm; Sample 23, FBS 131 mg/mg ClO2, 40.0 min, initial 191 ppm, nominal 7640, corrected 5559 ppm-min): 4.7 log | Log Reduction in Organism Count (MRSA biofilm; Sample 24, FBS 104 mg/mg ClO2, 15.0 min, initial 240 ppm, nominal and corrected 3600 ppm-min): 4.7 log | Log Reduction in Organism Count (MRSA biofilm; Sample 25, FBS 104 mg/mg ClO2, 30.0 min, initial 240 ppm, nominal and corrected 7200 ppm-min): 4.7 log | Log Reduction in Organism Count (MRSA biofilm; Sample 26, FBS 104 mg/mg ClO2, 60.0 min, initial 240 ppm, nominal and corrected 14400 ppm-min): 4.7 log | Final ClO2 Concentration ([1]; 104 mg FBS/mg ClO2, initial 240 ppm, 15.0 min, assumed unchanged): 240 ppm | Final ClO2 Concentration ([1]; 104 mg FBS/mg ClO2, initial 240 ppm, 30.0 min, assumed unchanged): 240 ppm | Final ClO2 Concentration ([1]; 104 mg FBS/mg ClO2, initial 240 ppm, 60.0 min, assumed unchanged): 240 ppm | Decay rate, K2 ([1]; 104 mg FBS/mg ClO2, initial 240 ppm, calculated, positive K2 taken as no loss): 0.0344 | Final ClO2 Concentration ([1]; 131 mg FBS/mg ClO2, initial 191 ppm, 15.0 min, calculated): 107 ppm | Final ClO2 Concentration ([1]; 131 mg FBS/mg ClO2, initial 191 ppm, 40.0 min, calculated): 87 ppm | Decay rate, K2 ([1]; 131 mg FBS/mg ClO2, initial 191 ppm, calculated from K2=-0.00927(FBS/ClO2)+1): −0.2134 | ΔSVU, Average [2, 3]: 11.4 SVU | ΔSVU [2, 3]: 12 SVU (3×) and 10 SVU and 11 SVU | ΔSVU, Average [2, 4]: 12.6 SVU | ΔSVU [2, 4]: 15 SVU and 12 SVU (4×) | ΔSVU, Average [2, 5]: 11.8 SVU | ΔSVU [2, 5]: 12 SVU (4×) and 11 SVU | ΔSVU, Average [2, 6]: 13.6 SVU | ΔSVU [2, 6]: 15 SVU (2×) and 14 SVU and 12 SVU (2×) | improvement of tooth whitening, four applications compared to two applications ([2]; nominal dosage 6000 ppm-min (30 minutes × 200 ppm)): about 10% | improvement of tooth whitening, eight applications over four applications ([2]; nominal dosage 12,000 ppm-min): about 15%
